Reference: patent US20230382889A1 (Volastra Therapeutics, Inc., priority 2022, published 2023)
pIC50: −log10 of the molar value.

The compounds below were run against hKIF18A (1-374) (Homo sapiens (Human), UniProt Q8NI77) (assay: Inhibition of KIF18A microtubule-dependent ATPase activity (ADP-Glo)). Conditions: 4 nM hKIF18A (1-374).
Type: biochemical
Protocol: Test compounds were plated in a 3× dilution scheme in a 384-well plate. Assay buffer: 80 mM PIPES (pH 6.9), 1 mM MgCl2, 75 mM KCl, 1 mM EGTA, 1 mM DTT, 0.01% BSA, 0.005% Tween-20, 1 μM Taxol in H2O. […] After incubation at room temperature for 30 min, 2.5 μL of microtubule mix was added [0.2 mg/mL pre-formed microtubules, 2.0 mM ATP in assay buffer], the plate was centrifuged for 30 s and then incubated at 28° C. for 60 min. 5 μL of Promega® ADP-Glo Max R1 was added, the plate was centrifuged for 30 s, and the mixture incubated for 4 h at room temperature. 10 μL of Promega® ADP-Glo Max R2 was added, the plate centrifuged for 30 s, and incubated for 60 min at room temperature. Luminescence was measured with an Envision plate reader, and % Inhibition was calculated for each well as: ([max−min]−[test−min])/[max−min]. IC50 values were calculated from concentration vs. % Inhibition data via a four-parameter variable slope model.

Chain of hKIF18A (1-374) (Q8NI77 1-374): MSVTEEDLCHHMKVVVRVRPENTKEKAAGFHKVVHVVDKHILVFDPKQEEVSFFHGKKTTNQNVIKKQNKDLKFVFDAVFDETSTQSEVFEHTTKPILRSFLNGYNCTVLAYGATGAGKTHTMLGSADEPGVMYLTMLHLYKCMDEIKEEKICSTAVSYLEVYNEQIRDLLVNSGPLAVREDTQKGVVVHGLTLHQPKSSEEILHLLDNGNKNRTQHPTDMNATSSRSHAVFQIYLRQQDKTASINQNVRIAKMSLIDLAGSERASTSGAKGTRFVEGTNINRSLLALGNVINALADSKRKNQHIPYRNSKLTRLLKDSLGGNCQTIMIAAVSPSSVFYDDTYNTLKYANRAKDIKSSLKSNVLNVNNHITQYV

Row | SMILES | pIC50
1 | Cn1cc(-c2cn(-c3ccc(NS(=O)(=O)CCO)cc3N3CCC4(CC3)CC4)nn2)nc1N1CCC(F)(F)CC1 [Compound 119, N-(4-(4-(2-(4,4-difluoropiperidin-1-yl)-1-methyl-1H-imidazol-4-yl)-1H-1,2,3-triazol-1-yl)-3-(6-azaspiro[2.5]octan-6-yl)phenyl)-2-hydroxyethane-1-sulfonamide] | 7.38
2 | CCS(=O)(=O)Nc1ccc(-c2cn(-c3cc(C)cc(N4CCC(F)(F)CC4)n3)nn2)c(N2CCC3(CC2)CC3)c1 [Compound 108, N-(4-(1-(6-(4,4-difluoropiperidin-1-yl)-4-methylpyridin-2-yl)-1H-1,2,3-triazol-4-yl)-3-(6-azaspiro[2.5]octan-6-yl)phenyl)ethanesulfonamide] | 7.20
3 | CC(C)(C)NS(=O)(=O)c1cccc(-c2cnc(-c3ccc(NS(C)(=O)=O)cc3N3CCC4(CC3)CC4)[nH]2)c1 [Compound 34, N-(tert-butyl)-3-(2-(4-(methylsulfonamido)-2-(6-azaspiro[2.5]octan-6-yl)phenyl)-1H-imidazol-5-yl)benzenesulfonamide] | 7.13
4 | CS(=O)(=O)Nc1ccc(-c2ncc(-c3cccc(N4CC(F)(F)C4)n3)[nH]2)c(N2CCC3(CC2)CC3)c1 [Compound 33, N-(4-(5-(6-(3,3-difluoroazetidin-1-yl)pyridin-2-yl)-1H-imidazol-2-yl)-3-(6-azaspiro[2.5]octan-6-yl)phenyl)methanesulfonamide] | 7.44
5 | O=S(=O)(CCO)Nc1ccc(-n2cc(-c3ccn(CC4CCC4)n3)nn2)c(N2CCC3(CC2)CC3)c1 [Compound 77, N-(4-(4-(1-(cyclobutylmethyl)-1H-pyrazol-3-yl)-1H-1,2,3-triazol-1-yl)-3-(6-azaspiro[2.5]octan-6-yl)phenyl)-2-hydroxyethane-1-sulfonamide] | 7.92
6 | Cc1cc(-c2cn(-c3ccc(NS(=O)(=O)CCO)cc3N3CCC4(CC3)CC4)nn2)nc(N2CC3CC3C2)n1 (stereo not shown) [Compound 99, N-(4-(4-(2-(3-azabicyclo[3.1.0]hexan-3-yl)-6-methylpyrimidin-4-yl)-1H-1,2,3-triazol-1-yl)-3-(6-azaspiro[2.5]octan-6-yl)phenyl)-2-hydroxyethane-1-sulfonamide] | 8.09
7 | O=S(=O)(CCO)Nc1ccc(-c2cn(-c3ccc(F)c(N4CCCCC4)n3)nn2)c(N2CCC3(CC2)CC3)c1 [Compound 147, N-(4-(1-(5-fluoro-6-(piperidin-1-yl)pyridin-2-yl)-1H-1,2,3-triazol-4-yl)-3-(6-azaspiro[2.5]octan-6-yl)phenyl)-2-hydroxyethane-1-sulfonamide] | 7.66
8 | CCS(=O)(=O)Nc1ccc(-n2cc(-c3cc(C)cc(C(O)C4CCC4)n3)nn2)c(N2CCC3(CC2)CC3)c1 (stereo not shown) [Compound 133, N-(4-(4-(6-(cyclobutyl(hydroxy)methyl)-4-methylpyridin-2-yl)-1H-1,2,3-triazol-1-yl)-3-(6-azaspiro[2.5]octan-6-yl)phenyl)ethanesulfonamide] | 7.92
9 | CS(=O)(=O)Nc1ccc(-c2nc(-c3cccc(N4CCOCC4)n3)no2)c(N2CCC3(CC2)CC3)c1 [Compound 163, N-(4-(3-(6-morpholinopyridin-2-yl)-1,2,4-oxadiazol-5-yl)-3-(6-azaspiro[2.5]octan-6-yl)phenyl)methanesulfonamide] | 5.44
10 | O=C(O)c1cc(-c2cn(-c3ccc(NS(=O)(=O)CCO)cc3N3CCC4(CC3)CC4)nn2)nc(N2CCC(F)(F)CC2)n1 [Compound 158, 2-(4,4-difluoropiperidin-1-yl)-6-(1-(4-((2-hydroxyethyl)sulfonamido)-2-(6-azaspiro[2.5]octan-6-yl)phenyl)-1H-1,2,3-triazol-4-yl)pyrimidine-4-carboxylic acid] | 8.42
11 | O=S(=O)(CCO)Nc1ccc(-c2ncc(-c3cccc(N4CCC(F)(F)CC4)n3)[nH]2)c(N2CCC3(CC2)CC3)c1 [Compound 35, N-(4-(5-(6-(4,4-difluoropiperidin-1-yl)pyridin-2-yl)-1H-imidazol-2-yl)-3-(6-azaspiro[2.5]octan-6-yl)phenyl)-2-hydroxyethane-1-sulfonamide] | 7.57
12 | CCS(=O)(=O)Nc1ccc(-n2cc(-c3ccc(C(O)C4CCCC4)o3)nn2)c(N2CCC3(CC2)CC3)c1 (stereo not shown) [Compound 123, N-(4-(4-(5-(cyclopentyl(hydroxy)methyl)furan-2-yl)-1H-1,2,3-triazol-1-yl)-3-(6-azaspiro[2.5]octan-6-yl)phenyl)ethanesulfonamide] | 8.34
13 | O=S(=O)(CCO)Nc1ccc(-n2cc(-c3ccc(F)c(N4CC5CC5C4)n3)nn2)c(N2CCC3(CC2)CC3)c1 (stereo not shown) [Compound 153, N-(4-(4-(6-(3-azabicyclo[3.1.0]hexan-3-yl)-5-fluoropyridin-2-yl)-1H-1,2,3-triazol-1-yl)-3-(6-azaspiro[2.5]octan-6-yl)phenyl)-2-hydroxyethane-1-sulfonamide] | 7.80
14 | Cc1cc(-c2cnc(-c3ccc(NS(C)(=O)=O)cc3N3CCC4(CC3)CC4)[nH]2)nc(N2CCC(F)(F)CC2)n1 [Compound 26, N-(4-(5-(2-(4,4-difluoropiperidin-1-yl)-6-methylpyrimidin-4-yl)-1H-imidazol-2-yl)-3-(6-azaspiro[2.5]octan-6-yl)phenyl)methanesulfonamide] | 7.36
15 | Cc1cc(-c2cn(-c3ccc(NS(=O)(=O)CCO)cc3N3CCC4(CC4)C3)nn2)nc(N2CCC(F)(F)CC2)n1 [Compound 88, N-(4-(4-(2-(4,4-difluoropiperidin-1-yl)-6-methylpyrimidin-4-yl)-1H-1,2,3-triazol-1-yl)-3-(5-azaspiro[2.4]heptan-5-yl)phenyl)-2-hydroxyethane-1-sulfonamide] | 6.92
16 | Cc1cc(-c2cn(-c3ccc(NS(=O)(=O)CCO)cc3N3CCC(F)(F)CC3)nn2)nc(N2CCC(F)(F)CC2)c1 [Compound 80, N-(3-(4,4-difluoropiperidin-1-yl)-4-(4-(6-(4,4-difluoropiperidin-1-yl)-4-methylpyridin-2-yl)-1H-1,2,3-triazol-1-yl)phenyl)-2-hydroxyethane-1-sulfonamide] | 7.89
17 | Cc1cc(-c2cn(-c3ccc(NS(=O)(=O)CCO)cc3N3CCC4(CC3)CC4)nn2)nc(N2C[C@@H](F)[C@H](F)C2)c1 [Compound 115, N-(4-(4-(6-((3R,4R)-3,4-difluoropyrrolidin-1-yl)-4-methylpyridin-2-yl)-1H-1,2,3-triazol-1-yl)-3-(6-azaspiro[2.5]octan-6-yl)phenyl)-2-hydroxyethane-1-sulfonamide] | 7.36
18 | CS(=O)(=O)Nc1ccc(-n2cc(-c3cccc(N4CC5(CCO5)C4)n3)nn2)c(N2CCC3(CC2)CC3)c1 [Compound 58, N-(4-(4-(6-(1-oxa-6-azaspiro[3.3]heptan-6-yl)pyridin-2-yl)-1H-1,2,3-triazol-1-yl)-3-(6-azaspiro[2.5]octan-6-yl)phenyl)methanesulfonamide] | 7.39
19 | O=S(=O)(CCO)Nc1ccc(-c2cn(-c3ccc(F)c(N4CC5CC5C4)n3)nn2)c(N2CCC3(CC2)CC3)c1 (stereo not shown) [Compound 142, N-(4-(1-(6-(3-azabicyclo[3.1.0]hexan-3-yl)-5-fluoropyridin-2-yl)-1H-1,2,3-triazol-4-yl)-3-(6-azaspiro[2.5]octan-6-yl)phenyl)-2-hydroxyethane-1-sulfonamide] | 7.59
20 | O=S(=O)(CCO)Nc1ccc(-c2cn(-c3cccc(OC4CCCC4)n3)nn2)c(N2CCC3(CC2)CC3)c1 [Compound 113, N-(4-(1-(6-(cyclopentyloxy)pyridin-2-yl)-1H-1,2,3-triazol-4-yl)-3-(6-azaspiro[2.5]octan-6-yl)phenyl)-2-hydroxyethane-1-sulfonamide] | 7.64
21 | CCS(=O)(=O)Nc1ccc(-n2cc(-c3cc(CO)cc(N4CCC(F)(F)CC4)n3)nn2)c(N2CCC3(CC2)CC3)c1 [Compound 131, N-(4-(4-(6-(4,4-difluoropiperidin-1-yl)-4-(hydroxymethyl)pyridin-2-yl)-1H-1,2,3-triazol-1-yl)-3-(6-azaspiro[2.5]octan-6-yl)phenyl)ethanesulfonamide] | 7.54
22 | CCS(=O)(=O)Nc1ccc(-n2cc(-c3ccc(F)c(C(O)C4CCCC4)n3)nn2)c(N2CCC3(CC2)CC3)c1 (stereo not shown) [Compound 134, N-(4-(4-(6-(cyclopentyl(hydroxy)methyl)-5-fluoropyridin-2-yl)-1H-1,2,3-triazol-1-yl)-3-(6-azaspiro[2.5]octan-6-yl)phenyl)ethanesulfonamide] | 7.85
23 | CS(=O)(=O)Nc1ccc(-n2cc(-c3cccc(N4CC5(CCC5)C4)n3)nn2)c(N2CCC3(CC2)CC3)c1 [Compound 57, N-(4-(4-(6-(2-azaspiro[3.3]heptan-2-yl)pyridin-2-yl)-1H-1,2,3-triazol-1-yl)-3-(6-azaspiro[2.5]octan-6-yl)phenyl)methanesulfonamide] | 7.43
24 | O=S(=O)(CCO)Nc1ccc(-n2cc(-c3ccn(C4CCCC4)n3)nn2)c(N2CCC3(CC2)CC3)c1 [Compound 83, N-(4-(4-(1-cyclopentyl-1H-pyrazol-3-yl)-1H-1,2,3-triazol-1-yl)-3-(6-azaspiro[2.5]octan-6-yl)phenyl)-2-hydroxyethane-1-sulfonamide] | 8.00
25 | O=S(=O)(CCO)Nc1ccc(-n2cc(-c3ccc(C4=CCCC4)o3)nn2)c(N2CCC3(CC2)CC3)c1 [Compound 125, N-(4-(4-(5-(cyclopent-1-en-1-yl)furan-2-yl)-1H-1,2,3-triazol-1-yl)-3-(6-azaspiro[2.5]octan-6-yl)phenyl)-2-hydroxyethane-1-sulfonamide] | 8.05
